According to ChEMBL document CHEMBL4219043, “Beyond the Rule of 5: Lessons Learned from AbbVie's Drugs and Compound Collection” (J Med Chem, 2018):
≈ marks a conversion by molar mass, not a printed value.

How the values were obtained:
Hepatitis C virus [1] = assay: Antiviral activity against HCV genotype 1a H77 infected in human HuH7 replicon cells after 3 days in absence of human plasma by luciferase reporter gene assay; format: functional, organism-based, Hepacivirus hominis; conditions: genotype 1a H77, Huh-7, 72 h
Hepatitis C virus [2] = assay: Antiviral activity against HCV genotype 1a H77 infected in human HuH7 replicon cells after 3 days in presence of 40% human plasma by luciferase reporter gene assay; format: functional, organism-based, Hepacivirus hominis; conditions: genotype 1a H77, Huh-7, 72 h
Hepatitis C virus [3] = assay: Antiviral activity against HCV genotype 1b Con1 infected in human HuH7 replicon cells after 3 days in absence of human plasma by luciferase reporter gene assay; format: functional, organism-based, Hepacivirus hominis; conditions: isolate Con1, Huh-7, 72 h
Hepatitis C virus [4] = assay: Antiviral activity against HCV genotype 1b Con1 infected in human HuH7 replicon cells after 3 days in presence of 40% human plasma by luciferase reporter gene assay; format: functional, organism-based, Hepacivirus hominis; conditions: isolate Con1, Huh-7, 72 h
Hepatitis C virus [5] = assay: Antiviral activity against HCV genotype 1a H77 harboring NS3 R155K mutant infected in human HuH7 replicon cells after 3 days by luciferase reporter gene assay; format: functional, organism-based, Hepacivirus hominis; conditions: genotype 1a H77, Huh-7, 72 h
Hepatitis C virus [6] = assay: Antiviral activity against HCV genotype 1a H77 harboring NS3 D168V mutant infected in human HuH7 replicon cells after 3 days by luciferase reporter gene assay; format: functional, organism-based, Hepacivirus hominis; conditions: genotype 1a H77, Huh-7, 72 h
Hepatitis C virus [7] = assay: Antiviral activity against HCV genotype 1b Con1 harboring NS3 R155K mutant infected in human HuH7 replicon cells after 3 days by luciferase reporter gene assay; format: functional, organism-based, Hepacivirus hominis; conditions: isolate Con1, Huh-7, 72 h
Hepatitis C virus [8] = assay: Antiviral activity against HCV genotype 1b Con1 harboring NS3 D168V mutant infected in human HuH7 replicon cells after 3 days by luciferase reporter gene assay; format: functional, organism-based, Hepacivirus hominis; conditions: isolate Con1, Huh-7, 72 h
Hepatitis C virus [9] = assay: Resistance index, ratio of EC50 for HCV genotype 1a H77 harboring NS3 R155K mutant infected in human HuH7 replicon cells to EC50 for HCV genotype 1a H77 harboring wild type NS3 infected in human HuH7 replicon cells; format: functional, Hepacivirus hominis
Hepatitis C virus [10] = assay: Resistance index, ratio of EC50 for HCV genotype 1a H77 harboring NS3 D168V mutant infected in human HuH7 replicon cells to EC50 for HCV genotype 1a H77 harboring wild type NS3 infected in human HuH7 replicon cells; format: functional, Hepacivirus hominis
Hepatitis C virus [11] = assay: Resistance index, ratio of EC50 for HCV genotype 1b Con1 harboring NS3 R155K mutant infected in human HuH7 replicon cells to EC50 for HCV genotype 1b Con1 harboring wild type NS3 infected in human HuH7 replicon cells; format: functional, Hepacivirus hominis, isolate Con1
Hepatitis C virus [12] = assay: Resistance index, ratio of EC50 for HCV genotype 1b Con1 harboring NS3 D168V mutant infected in human HuH7 replicon cells to EC50 for HCV genotype 1b Con1 harboring wild type NS3 infected in human HuH7 replicon cells; format: functional, Hepacivirus hominis, isolate Con1
[13] = Half life in iv dosed rat by LC-MS/MS analysis; format: ADME, organism-based; conditions: in vivo
[14] = Plasma clearance in iv dosed rat by LC-MS/MS analysis; format: ADME, organism-based
[15] = Half life in po dosed rat by LC-MS/MS analysis; format: ADME, organism-based; conditions: in vivo
Rattus norvegicus = assay: Dose normalized AUC in po dosed rat after 24 hrs by LC-MS/MS analysis; format: ADME, organism-based; conditions: in vivo
[16] = Oral bioavailability in rat by LC-MS/MS analysis; format: ADME, organism-based; conditions: in vivo
[17] = Half life in dog at 1 mg/kg, iv by LC-MS/MS analysis; format: ADME, organism-based, Canis lupus familiaris; conditions: in vivo
[18] = Plasma clearance in dog at 1 mg/kg, iv by LC-MS/MS analysis; format: ADME, organism-based, Canis lupus familiaris
[19] = Half life in dog at 3 mg/kg, po by LC-MS/MS analysis; format: ADME, organism-based, Canis lupus familiaris; conditions: in vivo
Canis familiaris [20] = assay: Dose normalized AUC in dog at 3 mg/kg, po after 24 hrs by LC-MS/MS analysis; format: ADME, organism-based, Canis lupus familiaris; conditions: in vivo
Canis familiaris [21] = assay: (§1) Oral bioavailability in dog at 3 mg/kg by LC-MS/MS analysis; format: ADME, organism-based, Canis lupus familiaris; conditions: in vivo
Canis familiaris [22] = assay: Fraction of drug absorbed into portal vein in dog at 3 mg/kg, po by LC-MS/MS analysis; format: ADME, organism-based, Canis lupus familiaris; conditions: in vivo
Hepatitis C virus [23] = assay: Ratio of EC50 in presence of 40% human plasma to EC50 in absence of human plasma for HCV genotype 1a H77 infected in human HuH7 replicon cells; format: functional, Hepacivirus hominis
[24] = Solubility in pH 7.2 buffer; format: physicochemical
[25] = Apparent permeability of the compound in human Caco2 cells; format: ADME, cell-based; conditions: Caco-2
[26] = as §1; format: ADME, organism-based, Canis lupus familiaris; conditions: in vivo
[27] = Apparent permeability of the compound by PAMPA; format: ADME
RS4-11 = assay: Antiproliferative activity against human RS4:11 cells in presence of 10% human serum; format: functional, cell-based
MOLT-4 = assay: Antiproliferative activity against human MOLT4 cells in presence of 10% human serum; format: functional, cell-based

| Compound | EC50 (Hepatitis C virus [1]) | EC50 (Hepatitis C virus [2]) | EC50 (Hepatitis C virus [3]) | EC50 (Hepatitis C virus [4]) | EC50 (Hepatitis C virus [5]) | EC50 (Hepatitis C virus [6]) | EC50 (Hepatitis C virus [7]) | EC50 (Hepatitis C virus [8]) | Ratio EC50 (Hepatitis C virus [9]) | Ratio EC50 (Hepatitis C virus [10]) | Ratio EC50 (Hepatitis C virus [11]) | Ratio EC50 (Hepatitis C virus [12]) | half-life [13] | clearance [14] | AUC/dose (Rattus norvegicus) | half-life [17] | clearance [18] | AUC/dose (Canis familiaris [20]) | Ratio EC50 (Hepatitis C virus [23]) | Solubility [24] | other results |
| --- | --- | --- | --- | --- | --- | --- | --- | --- | --- | --- | --- | --- | --- | --- | --- | --- | --- | --- | --- | --- | --- |
| Cc1cc(C(=O)N[C@H]2CCCCC/C=C\[C@@H]3C[C@@]3(C(=O)NS(=O)(=O)C3CC3)NC(=O)[C@@H]3C[C@@H](Oc4nc5ccccc5nc4C(F)(F)F)CN3C2=O)no1 | 0.5 nM | 12 nM | 0.4 nM | 10 nM | 0.4 nM | 33 nM | 0.7 nM | 2 nM | 4 | 290 | 2 | 6 | 1.2 h | 3.5 mL/min/kg | 4.75 µg·h/mL | 1 h | 5.67 mL/min/kg | 6.76 µg·h/mL | 6 - 35 | 150 µM (≈ 116 µg/mL) | half-life [15]: 1.8 h; bioavailability [16]: 99.5%; half-life [19]: 1.5 h; F (Canis familiaris [21]): 200%; FaFg (Canis familiaris [22]): 1.5; Papp [25]: 5.4 ×10⁻⁶ cm/s |
| Cc1cc(C(=O)N[C@H]2CCCCC/C=C\[C@@H]3C[C@@]3(C(=O)NS(=O)(=O)C3CC3)NC(=O)[C@@H]3C[C@@H](Oc4nc5ccccc5nc4C)CN3C2=O)no1 | 1.4 nM | 30 nM | 0.4 nM | 9 nM | 3 nM | 94 nM | 2 nM | 5 nM | 6 | 177 | 2 | 2 | 2.4 h | 78.3 mL/min/kg | 0.008 µg·h/mL | 1.4 h | 7.83 mL/min/kg | 0.3 µg·h/mL | 6 - 35 | > 500 µM | bioavailability [16]: 3.9%; bioavailability [26]: 13%; FaFg (Canis familiaris [22]): 0.2; Papp [27]: 3.5 ×10⁻⁶ cm/s |
| Cc1cc(C(=O)N[C@H]2CCCCC/C=C\[C@@H]3C[C@@]3(C(=O)NS(=O)(=O)C3CC3)NC(=O)[C@@H]3C[C@@H](Oc4nc5cc(F)ccc5nc4C)CN3C2=O)no1 | 1.1 nM | 11 nM | 0.8 nM | 7 nM | 2 nM | 41 nM | 1.6 nM | 3 nM | 7 | 146 | 2 | 4 |  |  |  | 2 h | 1.17 mL/min/kg | 18 µg·h/mL | 6 - 35 | > 500 µM | half-life [19]: 2 h; bioavailability [26]: 123%; Papp [25]: 2.8 ×10⁻⁶ cm/s |
| CN(C)CC[C@H](CSc1ccccc1)Nc1ccc(S(=O)(=O)NC(=O)c2ccc(N3CCN(Cc4ccccc4-c4ccc(Cl)cc4)CC3)cc2)cc1[N+](=O)[O-] [ABT 737] |  |  |  |  |  |  |  |  |  |  |  |  |  |  |  |  |  |  |  |  | EC50 (RS4-11): 24 nM; EC50 (MOLT-4): 622 nM |
| CC1(C)CCC(CN2CCN(c3ccc(C(=O)NS(=O)(=O)c4ccc(NCC5CCOCC5)c([N+](=O)[O-])c4)c(Oc4cnc5[nH]ccc5c4)c3)CC2)=C(c2ccc(Cl)cc2)C1 [VENETOCLAX] |  |  |  |  |  |  |  |  |  |  |  |  |  |  |  |  |  |  |  |  | EC50 (RS4-11): 8 nM; EC50 (MOLT-4): > 5000 nM |
